ChEMBL document CHEMBL1131685, “Design and semisynthesis of spermine-sensitive Ribonuclease S'” (Bioorg Med Chem Lett, 1999)

Assay: Binding constant for spermine binding to Ribonuclease S (RNA ase) by saturation curve method

| Log K | Compound |
| --- | --- |
| 3.7 | C1CNCCNCCNCCN1 |
| 5.4 | NCCCCNCCCN |
| 5 | NCCCNCCCCNCCCN |
| 5 | NCCN(CCN)CCN |
| 5 | NCCNCCNCCN |

Assay: Association constant required to reduce the S-peptide / S-protein association by nonlinear curve fitting analysis
Format: ADME

| Log K | Compound |
| --- | --- |
| 6.5 | H-EETAEAKFERQHMDS-OH |
| 7.1 | H-KEDAADKFERQHMDS-OH |
| 7.1 | H-KEEAAAKFERQHMDS-OH |
| 6.9 | H-KEEAAEKFERQHMDS-OH |
| 7.6 | H-KETAAAKFERQHMDS-OH |
